Assay results from patent publication US20240207221A1, “TREATMENT OF HYPERAMMONEMIA” (BIOCODEX, priority 2021, published 2024).
Like-named read-outs stand apart in the source and are kept apart here.

Assays:
Type in all cases: in vivo
[1] = system: ammonia; experiment: Specific effect of stiripentol on ammonemia (without MSO), ABCAM ammonia assay kit; conditions: stiripentol 300 mg/kg intraperitoneally without methionine sulfoximine, mice
Procedure: Blood is collected under isoflurane anesthesia by cardiac puncture (0.5 to 1.0 mL per mouse) to determine ammonia levels. In the case of brain and blood sampling, the mouse is rapidly sacrificed by decapitation: the brain is removed and frozen in liquid nitrogen. The liver can then be removed and rapidly frozen in liquid nitrogen. Samples are stored at −80° C.
Stiripentol (0.1 mL/10 g) is administered intraperitoneally at different times with respect to MSO. […]
Ammonia is determined colorimetrically using a microplate reader (Dynex, model MRX), and an ABCAM kit (ref AB83360, ammonia assay kit) containing several reagents. This kit enables quantitative enzymatic determination of ammonium present in the samples. During the assay, ammonium is converted to a product that reacts with the OxiRed probe for quantification at 570 nm using a microplate reader. […] The kit, stored at −20° C., includes the following components: • Ammonia assay buffer (25 mL): ready to use, bring to room temperature before use; • OxiRed probe (200 μL): ready to use, warm to 37° ° C. to thaw DMSO; • Developer (1 vial): reconstitute with 220 μL of Ammonia assay buffer; • enzyme Mix (1 vial): reconstitute with 220 μL of Ammonia assay buffer; • Converting Enzyme (1 vial): reconstitute with 220 μl of Ammonia assay buffer, • 10 mM NH4Cl standard (100 μL): ready to use, keep on ice during use. […]

[2] = system: methionine sulfoximine (MSO)-induced hyperammonemia; conditions: for ammonemia: mean ± MSE
Procedure: (§1) Appl. Neurobiol. 11: 129-139, as follows.
(§2) Male CBA mice (Janvier) weighing between 23 and 27 grams are used after acclimatization for at least 4 days in the animal house (t°=22±2° C.; housing conditions are as follows: SAFE “A04” food; drinking water: tap water; nycthemeral cycle: 12 h/12 h (light: 7 h/19 h-dark: 19 h/7 h)).
(§3) On test day, mice are weighed, marked and placed in individual cages. At t ═O minutes, MSO (0.1 mL/10 g) is administered intraperitoneally, and the mice are carefully observed for 8 hours.
(§4) Stiripentol (0.1 mL/10 g) is administered intraperitoneally at different times with respect to MSO.
Results are expressed as the mean value±MSE.

[3] = system: methionine sulfoximine (MSO)-induced convulsions
Procedure: as §1, §2
On reception, mice are grouped in batches of 8 to 10 in 1500 U cages (floor area 1500 cm2) with bedding and sizzle dry (SDS) enrichment, in line with the ethical recommendations of European Parliament Directive 2010/63/EU (Sep. 22, 2010).
as §3
The parameters evaluated are the general condition of the animals, according to the Irwin grid (Irwin 1968), the number of convulsions, their onset times and mortality. Animals are euthanized as soon as limit points are reached, or at the end of the 8-hour observation period, according to the ANI07 procedure approved by the Ethics Committee.
as §4
Stiripentol (batch 176) was suspended in 5% (v/v) Tween 80 and 0.9% NaCl.
Results are expressed as the mean value±MSE. The statistical tests used are: • Fisher's exact test for percentages of convulsions and mortality, to determine a significant difference between groups at the 5% threshold, • A one-factor analysis of variance for the assays, to determine whether the pharmacological effect observed is significant at the 5% level (SigmaPlot 3.1 software).
Appl. Neurobiol. 11: 129-139.

[4] = stiripentol 300 mg/kg intraperitoneally, mice (conclusion)
[5] = 300 mg/kg stiripentol intraperitoneally 30 minutes prior to 50 mg/kg MSO
[6] = 300 mg/kg stiripentol intraperitoneally just prior to 50 mg/kg MSO

Which results are given for CC(C)(C)C(O)/C=C/c1ccc2c(c1)OCO2 (stereo not drawn) [stiripentol]?
effect on ammonemia compared with the control group [1]: did not alter ammonemia; ammonemia ([1]; plasma, mean ± MSE): 176 ± 14 µM; ammonemia ([2]; 300 mg/kg stiripentol 30 minutes prior to 50 mg/kg MSO (FIG. 1)): 448 ± 65 µM; reduction of hyperammonemia ([2]; 300 mg/kg stiripentol 30 minutes prior to 50 mg/kg MSO, compared with the MSO-only group): 41%; reduction of hyperammonemia ([2]; 300 mg/kg stiripentol just prior to 50 mg/kg MSO, versus MSO only): 32%; ammonemia ([2]; 300 mg/kg stiripentol just prior to 50 mg/kg MSO): 417 ± 51 µM; effect on MSO-induced hyperammonemia [2, 4]: significantly reduces; convulsion rate [3, 5]: 45%; mortality rate [3, 5]: 25%; convulsion rate [3, 6]: 50%; mortality rate [3, 6]: 25%; effect on methionine sulfoximine-induced convulsions and mortality [3, 4]: significantly reduces
